Source: patent publication US20210198284A1, “GOLD COMPOSITIONS AND METHODS OF USE THEREOF” (THE UNIVERSITY OF MASSACHUSETTS, priority 2018, published 2021)

Legend:
Format in all cases: cell-based
[1] = system: C. albicans ATCC 90028; assay: Antifungal MIC
[2] = system: A549 cells; assay: Cytotoxicity assay (resazurin); details: 20 h, mean±S.E.M. from two independent experiments
How it was run: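 A549 cells (5×10^3/well) were exposed to two-fold serial dilutions from 128 μg/mL (compounds 9-17 from 1,280 μg/mL) for 20 h at 37 °C. Resazurin was then added for 3 h and fluorescence read at ex 560/em 590 nm. IC50 came from curve fitting of inhibition vs log concentration; triplicates, repeated twice.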

[3] = system: C. neoformans ATCC 208821; assay: Antifungal MIC; details: for MIC: C. neoformans ATCC 208821
[4] = system: C. neoformans KN99; assay: Antifungal MIC
[5] = system: E. faecalis; assay: Antimicrobial screening of auranofin analogs
From the text: (§1) Auranofin analogs were synthesized by varying the structure of the thio-sugar ligand and the phosphine ligands. These analogs were screened for antimicrobial activity against 5 key ESKAPE pathogens and E. coli. (Table 3). The “ESKAPE” pathogens consist of six pathogens with growing multidrug resistant virulence: Enterococcus faecium (gram-positive), Staphylococcus aureus (gram-positive), Klebsiella pneumoniae (gram-negative), Acinetobacter (gram-negative), Pseudomonas aeruginosa (gram-negative) and Eterobacter (gram-negative). According to the data from the Centers for Disease Control and Prevention (CDC), two-thirds of all clinical infections are caused by these six ESKAPE bacteria.

[6] = system: E. cloacae; assay: Antimicrobial screening of auranofin analogs
From the text: as §1

[7] = system: MRSA; assay: Antimicrobial screening of auranofin analogs
From the text: as §1

[8] = system: P. aeruginosa; assay: Antimicrobial screening of auranofin analogs
From the text: as §1

[9] = system: S. aureus; assay: Antimicrobial screening of auranofin analogs
From the text: as §1

[10] = system: K. pneumoniae; assay: Antimicrobial screening of auranofin analogs
From the text: as §1

[11] = system: Gram-negative strains; assay: In vitro antimicrobial activities, Gram-negative strains taken together; details: Gram-negative strains tested
Procedure: Antibacterial assay. The minimum inhibitory concentrations (MICs) and the minimum bactericidal concentrations (MBCs) were determined by the broth microdilution method as described in the CLSI (The Clinical & Laboratory Standards Institute) guidelines (Performance standards for antimicrobial susceptibility testing: Clinical and Laboratory Standards Institute (CLSI), Twenty-Fifth informational supplement. Document M100-S25: […]; Vol. 35). All bacterial strains were cultured in cation-adjusted Muller Hinton broth (CAMHB) up to log-phase and then diluted to give a concentration of 7.5×10^5 CFU/mL. The gold complexes were dissolved in DMSO or water as stock solutions, which were then serially diluted two-fold in a 96-well plate. Aliquots (100 μL) of the dilutions were mixed with equal volumes of the bacterium suspension in a 96 well plate (in triplicates). The plates were incubated at 37° C. for 18 h without shaking. Negative and positive controls were included in the same well plate with wells having the culture medium only and bacteria solution only, respectively. The sample concentration that gave inhibition values above 90% were determined as MICs as calculated from absorbance values at 600 nm (OD600) obtained using a Tecan SPARK IOM plate reader. […] The sample concentration that gave no colony formed on agar plates were determined as MBCs. […]

[2,3,4,6-Tetra-O-acetyl-α-D-glucopyranosyl (1→4)-2,3,6-tri-O-acetyl-1-thio-β-D-glucopyranosato](triethylphosphine) gold(I) [Compound 5]
MIC [1]: >32 µg/mL
IC50 against A549 cells [2]: 15.2 ± 0.3 µg/mL
MIC [3]: >32 µg/mL

(2,3,4,6-Tetra-O-acetyl-1-thio-β-D-glucopyranosato) (triethylphosphine) gold(I) [Compound 1, reference compound]
MIC [1]: >32 µg/mL
MIC [4]: 16 µg/mL
IC50 against A549 cells [2]: 7.7 ± 1.3 µg/mL
antifungal activity in words ([3]; C. neoforman, strain not named): moderate antifungal activity
MIC [3]: 8 µg/mL
bactericidal activity at the lowest tested concentration [5]: ≤ 0.5 µg/mL
activity in words [6]: lacked significant activity
bactericidal activity at the lowest tested concentration [7]: ≤ 0.25 µg/mL
activity in words [8]: lacked significant activity
bactericidal activity at the lowest tested concentration [9]: ≤ 0.5 µg/mL
activity in words [10]: lacked significant activity
activity in words [11]: no activity

(2-Mercaptoethanolato)(trimethylphosphine) gold (I) [Compound 27]
IC50 against A549 cells [2]: 12.3 ± 3.1 µg/mL

(2-Aminobenzenethiolato)(triethylphosphine) gold(I) [Compound 19]
MIC [4]: 2 µg/mL
IC50 against A549 cells [2]: 7.5 ± 0.1 µg/mL
